Results as given in US4427660A, “Formyl-methionyl chemotatic peptide antibiotic conjugates useful in treating infections” (priority 1982, dated 1984).
Several values for one entry are separate records, joined by “and”; a condition that tells them apart may be missing. Equal entries are not always repeated. Where two headings read alike, the source gives them in different places. Positions of bridges follow the written chain, without caps; N, C: chain ends. Non-standard residues stand in square brackets, D forms with d. Residues, ends and D or L forms follow the SMILES beside them. *: point of attachment. Ileψ(thiazoline)Cys = CC[C@H](C)[C@H](N)C1=N[C@H](C(=O)*)CS1; dOrn = NCCC[C@@H](N)C(=O)O; Nle = CCCC[C@H](N)C(=O)O; For = O=C*

How the values were obtained:
[1] = test system: Rabbit polymorphononuclear leukocytes (neutrophils); format: cell-based; conditions: for times more active than f-Met-Phe-OH: chemotactic activity and lysosomal enzyme secretion-inducing activity alike
Procedure: Rabbit polymorphononuclear leukocytes (neutrophils) were obtained 12 to 14 hours after the intraperitoneal injection of 0.1 percent glycogen, as described in Becker et al (Z. Immunitaetsforsch Exp. Klin. Immunol., Volume 143, Page 466 1972). They were washed in Hanks' balanched salt solution containing 0.01 M tris (hydroxymethyl) aminomethane, pH 7.2, 1 mg/ml of glucose, and 1 mg/ml of crystalline bovine serum albumin. The Hanks' balanced salt solution was the buffer used throughout the work.
The assay employed a modified Boyden chamber as described by Becker et al, supra. […] The loaded chambers were incubated for 30 minutes at 37° C. This time interval was chosen as giving, for the particular batch of filters used, the greatest difference between the number of cells moving into the filter with no peptide in the lower compartment (background) and the maximum number of cells moving into the filter when stimulated by peptide. At the end of the incubation the filters were removed and stained and the number of cells in five high-power (400 magnification) fields (5 HPF) were counted and averaged. The results reported are the means of duplicate chambers.
The migration enhancing activities of different peptides were compared essentially as described by Schiffmann et al (J. Immunol., Volume […], Page 1830, 1975) and Showell et al (J. Immunol., Volume 116, Page 99, 1976). In measuring the relative activity of the peptides, a peptide was diluted so that each concentration was one quarter that of the next higher concentration. The concentrations of peptides were chosen on the basis of preliminary experiments to cover the range giving minimum to maximal activity. The chemotactic activity plotted against the logarithm of the molar concentration of peptide yielded a sigmoidal-shaped dose-response curve. Different peptides tested at the same time with the same cells gave curves which were parallel to each other in their linear portions and had the same maximum. The activities of the different peptides are reported as the ED50, i.e., the concentration of chemotactic factor giving 50 percent of the maximum activity.
The results are reported as the means ED50 ±SE (standard error) as determined by at least three separate experiments. In this assay, the lower the value of the ED50, the greater is the chemotactic activity.

neutrophils = format: cell-based, rabbit
Procedure: The cytochalasin B was diluted from a stock solution containing 4 mg/ml in dimethyl sulphoxide. […] The mixtures were then incubated for five minutes at 37° C. (the release is completed in one minute of less under these conditions) and the tubes centrifuged at 2500 rpm (1400 g) for five minutes at 4° C.
The total concentration of enzyme was measured by lysing the cells with buffer containing 0.1 percent Triton X-100 (Beckmann Instruments, Inc., Fullerton, Calif.). […] The lactic dehydrogenase of each supernate was measured to insure that the peptides induced no release of this cytoplasmic marker.
The lysosomal enzyme-inducing activity for each peptide was obtained from the dose-response curve as its ED50, i.e., the molar concentration of peptide causing 50 percent of the maximal release of either lysozyme or β-glucuronidase. Again, the lower the value of the ED50, the greater is the lysosomal enzyme secretion-inducing activity.

[2] = test system: Escherichia coli ATCC 25922; assay: Kirby-Bauer disc assay, inhibitory zone size; format: cell-based; conditions: E. coli
Procedure: (§1) In these tables antimicrobial activity is expressed as inhibitory zone size as performed by the Kirby-Bauer assay.
(§2) The experiments in Tables 10-14 were performed using the following bacteria, media and experimental protocol:
(§3) The bacteria were Escherichia coli ATCC 25922 and Pseudomonas aeruginosa ATCC 27835.
(§4) The media was Trypticase soy agar (Baltimore Biological Laboratories, BBL) used as a general growth medium. Broth media was Brain heart infusion broth (BBL) for E. coli and medium 81 [trypticase soy broth without dextrose plus 1% potassium nitrate] for P. aeruginosa.
(§5) Antimicrobial susceptibility was tested on M9 medium [a glucose minimal salts medium (Miller, 1972)] solidified with 1.5% agar (Difco) for the base or 0.7% agar for overlay.
The following is the experimental protocol: Broth cultures of E. coli or P. aeruginosa were grown overnight in broth at 35° C. Cultures were diluted to visually match a 0.5 McFarland turbidity standard (Matsen and Barry, 1974); the numbers of organisms in this suspension ordinarily were .congruent.10^8 viable cells per ml. Ten microliter (ul) was inoculated into 10 ml. of 0.7% M9 agar that was melted and cooled to 46°-50° C. This was overlaid onto a 50 ml base of 1.5% M9 agar in 15 cm diameter petri dishes. The agar overlay was allowed to harden at room temperature for 30 min. Antimicrobial tests disks were placed on the surface of the agar, and the plates were incubated overnight at 35° C. Diameters of zones of inhibition of bacterial growth were measued with a vernier caliper and recorded to the nearest 0.1 mm.

[3] = test system: Pseudomonas aeruginosa ATCC 27835; assay: Kirby-Bauer disc assay, inhibitory zone size; format: cell-based; conditions: P. aeruginosa; disc FML alone; 6 mm = disc, no inhibition
Procedure: as §1, §2, §3, §4, §5
The following is the experimental protocol: Broth cultures of E. coli or P. aeruginosa were grown overnight in broth at 35° C. Cultures were diluted to visually match a 0.5 McFarland turbidity standard (Matsen and Barry, 1974); the numbers of organisms in this suspension ordinarily were .congruent.10^8 viable cells per ml. Ten microliter (ul) was inoculated into 10 ml. of 0.7% M9 agar that was melted and cooled to 46°-50° C. This was overlaid onto a 50 ml base of 1.5% M9 agar in 15 cm diameter petri dishes. […] Diameters of zones of inhibition of bacterial growth were measued with a vernier caliper and recorded to the nearest 0.1 mm.

peritoneal neutrophils = assay: Test for true chemotaxis (Zigmond and Hirsch technique); format: cell-based, rabbit
From the text: Increased penetration of cells into or through the filter of a Boyden chamber system under the stimulus of a chemical agent is generally taken as indicating the chemotactic activity of the agent. Zigmond and Hirsch (J. Exp. Med., Volume 137, Page 387, 1973) have pointed out that the increased migration could result from a response directed by the chemical gradient, that is from chemotaxis, or from increased random locomotion or both. These authors have described a technique for determining if the movement of the cells into the filter of a Boyden chamber system under the influence of different gradients is greater than could be expected on the basis of increased rates of locomotion alone and to that extent is due to a true chemotactic response.
In testing f-Met-Leu-Phe-OH for true chemotaxis, 5×10^6 /ml of washed peritoneal neutrophils obtained twelve hours after the administration of 0.1 percent glycogen were suspended in varying concentrations of the peptide and placed in the upper compartment of a modified Boyden chamber. […] Using the micrometer of the fine adjustment of the microscope, the distance was measured from the top of the filter to the farthest plane of focus still containing two cells. This distance was determined across five fields and averaged. […] The test results were analyzed as described by Zigmond and Hirsch. […]

[4] = molecular target: T1, surface receptor of rabbit polymorphonuclear leukocytes (Oryctolagus cuniculus, UniProt Q05394); assay: Inhibition of F-Nle-leu (3H)PHE binding to rabbit PMN
T1 construct: endogenous in cells; host or cells: rabbit polymorphonuclear leukocytes (neutrophils)
T1 sequence (Q05394 1-352): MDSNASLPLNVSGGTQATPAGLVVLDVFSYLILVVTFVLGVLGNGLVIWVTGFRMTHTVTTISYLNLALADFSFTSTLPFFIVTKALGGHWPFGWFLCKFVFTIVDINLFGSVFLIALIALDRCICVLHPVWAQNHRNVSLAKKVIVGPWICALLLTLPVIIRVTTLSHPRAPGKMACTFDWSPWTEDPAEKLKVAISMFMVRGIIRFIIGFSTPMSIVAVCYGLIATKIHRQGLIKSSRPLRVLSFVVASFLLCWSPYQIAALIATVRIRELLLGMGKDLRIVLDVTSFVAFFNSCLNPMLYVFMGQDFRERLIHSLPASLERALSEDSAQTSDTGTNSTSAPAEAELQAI

[5] = test system: 4 strains of Pseudomonas aeruginosa
Procedure: Antimicrobial activity was assayed by the MIC Technique using 4 strains of Pseudomonas aeruginosa.

[6] = test system: Pseudomonas aeruginsa, strain Mangalore; conditions: EXPT 1-3 on separate lines
[7] = test system: human polymorphonuclear leukocytes; assay: Chemotaxis for human polymorphonuclear leukocytes; format: cell-based; conditions: human PMN, FIG. 2 text and summary (Table 6)
[8] = test system: PMN (neutrophil) from human peripheral blood
Procedure: (§6) The neutrophil (PMN) experiments used 3μ nitrocellulose filters and the monocyte (MN) experiments used 5μ polycarbonate filters. PMNs and MNs were prepared from human peripheral blood by Ficoll-Hypaque and dextran sedimentation techniques. […] PMN experiments were incubated at 37° C. for 3 hours, MN experiments for 90 minutes. After this the filters were removed and stained and counted visually with a microscope.

[9] = test system: MN (monocyte) from human peripheral blood
Procedure: as §6

leukocytes = conditions: relatively weak chemoattractants; cited from earlier work
[10] = concentration giving 50 percent of maximum activity, mean of at least three experiments, 30 minutes at 37° C.
[11] = molar concentration causing 50 percent of maximal release, 10 μg/ml cytochalasin B, five minutes at 37° C.
[12] = [F-Met-Leu-Phe] 10^-6, Sulfadiazine 5 μg
[13] = [F-Met-Leu-Phe] 10^-6, Sulfadiazine 50 μg
[14] = [F-Met-Leu-Phe] 10^-6, Sulfadiazine 100 μg
[15] = [F-Met-Leu-Phe] 10^-7, Sulfadiazine 5 μg
[16] = [F-Met-Leu-Phe] 10^-7, Sulfadiazine 50 μg
[17] = [F-Met-Leu-Phe] 10^-7, Sulfadiazine 100 μg
[18] = [F-Met-Leu-Phe] 10^-7, Sulfadiazine 250 μg
[19] = [F-Met-Leu] 10^-3, Sulfadiazine 5 μg
[20] = [F-Met-Leu] 10^-3, Sulfadiazine 25 μg
[21] = [F-Met-Leu] 10^-3, Sulfadiazine 50 μg
[22] = [F-Met-Leu] 10^-3, Sulfadiazine 100 μg
[23] = [F-Met-Leu] 10^-3, Sulfadiazine 250 μg
[24] = [F-Met-Leu] 10^-4, Sulfadiazine 5 μg
[25] = [F-Met-Leu] 10^-4, Sulfadiazine 25 μg
[26] = [F-Met-Leu] 10^-4, Sulfadiazine 50 μg
[27] = [F-Met-Leu] 10^-4, Sulfadiazine 100 μg
[28] = [F-Met-Leu] 10^-4, Sulfadiazine 250 μg

Compound: CSCC[C@H](NC=O)C(=O)N[C@@H](CCSC)C(=O)N[C@@H](Cc1ccccc1)C(=O)O [f--Met--Met--Phe--OH] (For-Met-Met-Phe-OH)
- Chemotactic Activity ED50 ± SE [1, 10]: 2.1 ± 0.49 × 10^-10 M
- ED50 ± SE B-Glucoronidase (neutrophils): 1.8 ± 0.24 × 10^-9 M
- ED50 ± SE Lysosyme (neutrophils): 1.9 ± 0.4 × 10^-9 M

Compound: CSCC[C@H](NC=O)C(=O)N[C@@H](CC(C)C)C(=O)O [f--Met--Leu--OH] (For-Met-Leu-OH)
- Chemotactic Activity ED50 ± SE [1, 10]: 4.0 ± 0.45 × 10^-7 M
- ED50 ± SE Lysosyme (neutrophils; [11]): 1.7 ± 0.17 × 10^-6 M
- Zone Diameter ([2]; disc FML alone, 6 mm = disc, no inhibition): 6.0 mm
- Zone Diameter [3]: 6.0 mm

Compound: CSCC[C@H](NC=O)C(=O)N[C@@H](CC(C)C)C(=O)N[C@@H](Cc1ccccc1)C(=O)N[C@@H](CCCCN)C(=O)O [f--Met--Leu--Phe--Lys--OH] (For-MLFK-OH)
- Chemotactic Activity ED50 ± SE [1]: 7.0 ± 1.0 × 10^-10 M
- times more active than f-Met-Phe-OH [1]: 500 times
- ED50 ± SE B-Glucoronidase (neutrophils): 1.9 ± 0.3 × 10^-9 M
- ED50 ± SE Lysosyme (neutrophils): 1.7 ± 0.5 × 10^-9 M

Compound: CSCC[C@H](NC=O)C(=O)N[C@@H](Cc1ccccc1)C(=O)O [f--Met--Phe--OH] (For-Met-Phe-OH)
- Chemotactic Activity ED50 ± SE [1, 10]: 4.1 ± 0.95 × 10^-7 M
- ED50 ± SE B-Glucoronidase (neutrophils): 2.0 ± 0.42 × 10^-6 M
- ED50 ± SE Lysosyme (neutrophils; [11]): 1.5 ± 0.39 × 10^-6 M

Compound: CSCC[C@H](NC=O)C(=O)N[C@@H](CC(C)C)C(=O)N[C@@H](Cc1ccccc1)C(=O)O [FMLP, formyl-methionyl-leucyl-phenylalanine]
- times more active than f-Met-Phe-OH [1]: 5,000 times
- Chemotactic Activity ED50 ± SE [1, 10]: 7.0 ± 1.7 × 10^-11 M
- ED50 ± SE B-Glucoronidase (neutrophils; [11]): 2.6 ± 0.32 × 10^-10 M
- ED50 ± SE Lysosyme (neutrophils; [11]): 2.4 ± 0.31 × 10^-10 M
- distance cells moved farther than predicted (peritoneal neutrophils; positive gradient (peptide below greater than above the filter)): greater than 10 μm
- true chemotaxis (experimental vs predicted values) (peritoneal neutrophils; sixty minutes at 37° C., 3.0 μm pore size filter): truly chemotactic
- IC50 [4]: 0.5 nM

Compound: formyl-Met-Leu-phe-silver sulfadiazine [FMLP-AgSDZ]
- concentration at which all strains were inhibited (MIC Technique) [5]: 80 μm/ml
- MIC at 24h [6]: 40 μg/m and 80 μg/m
- ED50, M concentration giving 50% max activity [7]: 96 nM
- ED50, M concentration giving 50% max activity ([7]; listed as FMLP--AgSDZ): 78 nM
- ID50, molar concentration which displaced 50% of a labeled attractant from the cell receptor ([4]; F-Nle-leu (3H)PHE, rabbit PMN): 2 nM

Compound: CCCC[C@H](NC=O)C(=O)N[C@@H](CC(C)C)C(=O)N[C@@H](Cc1ccccc1)C(=O)O [f--Nle--Leu--Phe--OH] (For-[Nle]-Leu-Phe-OH)
- Chemotactic Activity ED50 ± SE [1]: 6.6 ± 1.2 × 10^-10 M
- ED50 ± SE B-Glucoronidase (neutrophils): 1.9 ± 0.2 × 10^-9 M
- ED50 ± SE Lysosyme (neutrophils): 1.5 ± 0.2 × 10^-9 M

Compound: Nc1ccc(S(=O)(=O)Nc2ncccn2)cc1 [Sulfadiazine, sulfadiazine]
- % Inhibition PMN [8, 12]: 10.0%
- % Inhibition PMN ([8]; [F-Met-Leu-Phe] 10^-6, Sulfadiazine 25 μg): 8.0%
- % Inhibition PMN [8, 13]: 39.5%
- % Inhibition PMN [8, 14]: 49.0%
- % Inhibition PMN [8, 15]: 16.8%
- % Inhibition PMN ([8]; [F-Met-Leu-Phe] 10^-7, Sulfadiazine 25 μg): 18.0%
- % Inhibition PMN [8, 16]: 65.8%
- % Inhibition PMN [8, 17]: 70.8%
- % Inhibition PMN [8, 18]: 88.0%
- % Inhibition PMN [8, 19]: 19.0%
- % Inhibition PMN [8, 20]: 38.0%
- % Inhibition PMN [8, 21]: 48.7%
- % Inhibition PMN [8, 22]: 73.3%
- % Inhibition PMN [8, 23]: 83.9%
- % Inhibition PMN [8, 24]: 1.0%
- % Inhibition PMN [8, 25]: 14.0%
- % Inhibition PMN [8, 26]: 37.5%
- % Inhibition PMN [8, 27]: 53.0%
- % Inhibition PMN [8, 28]: 41.0%
- % Inhibition MN [9, 12]: 22.5%
- % Inhibition MN [9, 13]: 21.0%
- % Inhibition MN [9, 14]: 82.0%
- % Inhibition MN [9, 15]: 14.6%
- % Inhibition MN [9, 16]: 13.7%
- % Inhibition MN [9, 17]: 41.7%
- % Inhibition MN [9, 18]: 96.6%
- % Inhibition MN [9, 19]: 2.5%
- % Inhibition MN [9, 20]: 13.0%
- % Inhibition MN [9, 21]: 36.7%
- % Inhibition MN [9, 22]: 43.3%
- % Inhibition MN [9, 23]: 98.0%
- % Inhibition MN [9, 24]: 20.0%
- % Inhibition MN [9, 25]: 17.5%
- % Inhibition MN [9, 26]: 17.0%
- % Inhibition MN [9, 27]: 60.0%
- % Inhibition MN [9, 28]: 97.5%
- Zone Diameter ([2]; disc 10 μg, alone): 28.0 mm
- Zone Diameter ([2]; disc 25 μg, alone): 32.0 mm

Compound: CSCC[C@H](NC=O)C(=O)N[C@@H](Cc1ccccc1)C(=O)N[C@@H](CC(C)C)C(=O)O [f-Met-Phe-Leu-OH] (For-Met-Phe-Leu-OH)
- times less active than f-Met-Leu-Phe-OH ([1]; chemotactic and lysosomal enzyme secretion-inducing activities): 500 times

Compound: gramicidin
- chemoattractant concentration (leukocytes): 10^-5 to 10^-6 M

Compound: CC[C@H](C)[C@H](N)C1=N[C@H](C(=O)N[C@@H](CC(C)C)C(=O)N[C@H](CCC(=O)O)C(=O)N[C@H](C(=O)N[C@H]2CCCCNC(=O)[C@H](CC(N)=O)NC(=O)[C@@H](CC(=O)O)NC(=O)[C@H](Cc3cnc[nH]3)NC(=O)[C@@H](Cc3ccccc3)NC(=O)[C@H]([C@@H](C)CC)NC(=O)[C@@H](CCCN)NC2=O)[C@@H](C)CC)CS1 [bacitracin] ({Ileψ(thiazoline)Cys}-L[dE]IK[dOrn]I[dF]H[dD]N; lactam 4-C)
- chemoattractant concentration (leukocytes): 10^-5 to 10^-6 M

Compound: CSCC[C@H](NC(=O)[C@H](CCSC)NC(=O)[C@H](CCSC)NC(=O)[C@H](CCSC)NC=O)C(=O)O [f--Met--Met--Met--Met--OH] (For-MMMM-OH)
- Chemotactic Activity ED50 ± SE [1]: 3.0 ± 0.13 × 10^-10 M
- ED50 ± SE B-Glucoronidase (neutrophils): 3.0 ± 0.73 × 10^-9 M
- ED50 ± SE Lysosyme (neutrophils): 2.4 ± 0.34 × 10^-9 M

Compound: tyrocidin
- chemoattractant concentration (leukocytes): 10^-5 to 10^-6 M
